Among the test systems are NCI-H522; SR; HCT-15; SW-620; NCI/ADR-RES; LOX IMVI; MCF7; DU-145; EKVX; PC-3; A498; MDA-MB-231; SK-MEL-2; OVCAR-4; NCI-H23; COLO 205; NCI-H226; MDA-MB-435; SN12C.
What all share (experiment): DTP human tumour cell line panel, 48 h

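Results reflect a 48-hour exposure of cells in 96-well plates to compound at five concentrations. At the GI50, growth is halved.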 Active and inactive are the calls of the source. No stated cut-off is given here; in the data, active = GI50 up to about 1.1 µM and inactive = higher.

On to `COC(=O)c1cc(CC2Cc3cc4c(cc3C2=O)CCC4)cc2c1CCC2` (configuration not stated), for which the GI50 is 54.3 µM (inactive) in the test on NCI-H522; > 100 µM (inactive) with SR; above 100 µM in the test on HCT-15; > 100 µM (inactive) in the test on SW-620; 81.5 µM (inactive) with NCI/ADR-RES; > 100 µM (inactive) with LOX IMVI. The GI50 with MCF7 is 45.8 µM (inactive); in the test on DU-145 it was > 100 µM (inactive); in the test on EKVX, > 100 µM (inactive); in the test on PC-3 it was 15.2 µM (inactive); with A498 it was > 100 µM (inactive); in the test on MDA-MB-231, > 100 µM (inactive). Further, the GI50 with SK-MEL-2 was 63.7 µM (inactive); in the test with OVCAR-4 it was 33.2 µM (inactive); in the test with NCI-H23 it was > 100 µM (inactive); in the test with COLO 205 it was 93.3 µM (inactive); in the test on NCI-H226, > 100 µM (inactive); in the test with MDA-MB-435, > 100 µM (inactive). In addition, the GI50 in the test with SN12C was > 100 µM (inactive).

For the molecule `O=C1/C(=C/c2ccc(O)cc2)CCc2ccccc21`, the GI50 in the test on NCI-H522 is 3.05 µM (inactive); in the test with SR, 5.45 µM (inactive); in the test on HCT-15, 18.8 µM; in the test on SW-620 it was 19.4 µM (inactive); with NCI/ADR-RES, 12.7 µM (inactive); with LOX IMVI, 20 µM (inactive). Also, the GI50 in the test with MCF7 was 6.38 µM (inactive); with DU-145, 24.8 µM (inactive); in the test with EKVX it was 23 µM (inactive); with PC-3 it was 16.8 µM (inactive); in the test on A498, 24.7 µM (inactive); in the test on MDA-MB-231 it was 20.5 µM (inactive). For the same molecule, the GI50 is 16 µM (inactive) with SK-MEL-2; 18.5 µM (inactive) in the test on OVCAR-4; 23.4 µM (inactive) in the test with NCI-H23; 22 µM (inactive) in the test with COLO 205; 24.5 µM (inactive) with NCI-H226; 21.5 µM (inactive) in the test with MDA-MB-435. Besides, in the test with SN12C, the GI50 was 18.3 µM (inactive).

On to `O=C1C(Cl)C2(CC(/C=C/c3ccccc3Cl)=NN2c2cccc(S(=O)(=O)O)c2)N1c1nc2ccccc2s1` (configuration not stated), for which the GI50 with NCI-H522 was 12.6 µM (inactive); in the test with SR, 1.35 µM (inactive); in the test with HCT-15, 15.8 µM; with SW-620 it was 19.4 µM (inactive); in the test with NCI/ADR-RES, > 100 µM (inactive); in the test with LOX IMVI, 12.4 µM (inactive). The GI50 is 21.6 µM (inactive) in the test with MCF7; 21.2 µM (inactive) in the test on DU-145; 49 µM (inactive) in the test with EKVX; 66.4 µM (inactive) in the test on PC-3; 66.7 µM (inactive) with A498; 79.8 µM (inactive) in the test on MDA-MB-231. The GI50 with SK-MEL-2 is > 100 µM (inactive); in the test with OVCAR-4, 29.1 µM (inactive); in the test with NCI-H23, 33.6 µM (inactive); with COLO 205, > 100 µM (inactive); in the test on NCI-H226, 30.2 µM (inactive); in the test with MDA-MB-435, 1.5 µM (inactive). In addition, the GI50 in the test with SN12C was 93.5 µM (inactive).

For `CCOC(=O)C(NC(=O)CC)(N1CCN(c2cc3c(cc2F)c(=O)c(C(=O)O)cn3C2CC2)CC1)C(F)(F)F` (configuration not stated), the GI50 in the test on NCI-H522 was > 100 µM (inactive); with SR, > 100 µM (inactive); in the test with HCT-15 it was above 100 µM; in the test on SW-620, > 100 µM (inactive); in the test on NCI/ADR-RES, > 100 µM (inactive); with LOX IMVI it was > 100 µM (inactive). The GI50 is > 100 µM (inactive) with MCF7; > 100 µM (inactive) with DU-145; > 100 µM (inactive) in the test with EKVX; > 100 µM (inactive) in the test on PC-3; > 100 µM (inactive) in the test on A498; 52.2 µM (inactive) with MDA-MB-231. In addition, the GI50 in the test with SK-MEL-2, in the test with OVCAR-4, with NCI-H23, in the test on COLO 205, with NCI-H226 and in the test on MDA-MB-435 was > 100 µM (inactive) in each case. The GI50 in the test on SN12C was > 100 µM (inactive).

For the molecule `CCOC(=O)c1c(CN2CCCC2)n(-c2ccccc2)c2cc(Br)c(OC)cc12`, the GI50 with NCI-H522 is 13.7 µM (inactive); with SR, 6.14 µM (inactive); in the test on HCT-15, 14.4 µM; in the test with SW-620, 18 µM (inactive); in the test on NCI/ADR-RES, 15.2 µM (inactive); with LOX IMVI, 13.8 µM (inactive). Also, the GI50 was 6.87 µM (inactive) with MCF7; 17.7 µM (inactive) with DU-145; 20 µM (inactive) in the test on EKVX; 20.8 µM (inactive) in the test on PC-3; 4.78 µM (inactive) in the test on A498; 17.2 µM (inactive) in the test on MDA-MB-231. Also, the GI50 in the test on SK-MEL-2 was 18 µM (inactive); with OVCAR-4, 33.4 µM (inactive); in the test with NCI-H23, 20.5 µM (inactive); with COLO 205, 11.8 µM (inactive); with NCI-H226, 13.3 µM (inactive); with MDA-MB-435 it was 26.9 µM (inactive). In addition, the GI50 in the test with SN12C was 26.1 µM (inactive).

For `CC(C)(C)NC(=O)/C(=C\Sc1ccccc1)c1ccccc1`, the GI50 is 6.15 µM (inactive) in the test with NCI-H522; 46.6 µM (inactive) in the test with SR; above 48.5 µM in the test on HCT-15; > 100 µM (inactive) with SW-620; > 29 µM (inactive) with NCI/ADR-RES; 20.3 µM (inactive) in the test on LOX IMVI. Moreover, the GI50 with MCF7 is > 73.8 µM (inactive); in the test with DU-145 it was > 100 µM (inactive); in the test on EKVX it was > 74.6 µM (inactive); in the test on PC-3, > 76.2 µM (inactive); in the test with A498, > 100 µM (inactive); with MDA-MB-231, > 95.5 µM (inactive). In addition, the GI50 with SK-MEL-2 was > 100 µM (inactive); in the test on OVCAR-4 it was > 68.4 µM (inactive); in the test with NCI-H23, > 41.7 µM (inactive); in the test on COLO 205, > 71 µM (inactive); in the test with NCI-H226 it was > 72.1 µM (inactive); in the test on MDA-MB-435 it was > 82.8 µM (inactive). Moreover, in the test on SN12C, the GI50 is > 100 µM (inactive).

As for `COc1cc(C=C2C(C)=NN(c3cccc(Cl)c3)C23SCC(=O)N3c2nc3ccccc3s2)ccc1O` (configuration not stated), the GI50 is 17.9 µM (inactive) with NCI-H522; 13.2 µM (inactive) with SR; 30.4 µM in the test on HCT-15; 27.3 µM (inactive) in the test with SW-620; 33 µM (inactive) in the test on NCI/ADR-RES; 27.5 µM (inactive) in the test with LOX IMVI. Further, the GI50 was 27.7 µM (inactive) in the test on MCF7; 32.4 µM (inactive) with DU-145; 39.5 µM (inactive) in the test with EKVX; 21.3 µM (inactive) in the test on PC-3; 26.4 µM (inactive) with A498; 20.8 µM (inactive) in the test with MDA-MB-231. Further, the GI50 in the test on SK-MEL-2 was 19.4 µM (inactive); in the test on OVCAR-4, 36.2 µM (inactive); with NCI-H23, 30.1 µM (inactive); with COLO 205 it was 16.9 µM (inactive); in the test on NCI-H226 it was 35.1 µM (inactive); in the test with MDA-MB-435 it was 29.4 µM (inactive). In the test on SN12C, the GI50 is 30.1 µM (inactive).

With `CC(=O)Oc1ccc(/C=C/C(=O)NCC(NC(=O)/C=C/c2ccc(OC(C)=O)c(OC(C)=O)c2)C(=O)O)cc1OC(C)=O` (configuration not stated), the GI50 was 46.8 µM (inactive) in the test with NCI-H522; 33.4 µM (inactive) in the test with SR; above 100 µM in the test on HCT-15; > 100 µM (inactive) in the test with SW-620; > 100 µM (inactive) in the test on NCI/ADR-RES; 97.3 µM (inactive) in the test on LOX IMVI. Besides, the GI50 in the test on MCF7, with DU-145, with EKVX, in the test on PC-3, in the test on A498 and in the test on MDA-MB-231 was > 100 µM (inactive) in each case. The GI50 in the test on SK-MEL-2, in the test with OVCAR-4, in the test on NCI-H23, with COLO 205, in the test on NCI-H226 and in the test with MDA-MB-435 was > 100 µM (inactive) in each case. Besides, the GI50 in the test on SN12C was > 100 µM (inactive).

These data come from ChEMBL document CHEMBL1201862, “PubChem BioAssay data set” (2004).
